{"source": "patent US11597726B2", "about": "(Certego Therapeutics Inc., priority 2020, dated 2023)", "key": {"[1]": {"system": "mice", "assay": "Onset of sedation (immobility) in the open field test (OFT)", "assay_type": "in vivo"}, "[2]": {"system": "c-fos", "assay": "Pharmacomapping: whole-brain drug-evoked c-fos activation", "settings": "for brain activation compared with non-deuterated gaboxadol at the same dose: 2.5 hour post administration; for brain activation compared with gaboxadol: BSTrh; for brain activation of each drug alone: gaboxadol at 3 mg/kg alone, ketamine at 6 mg/kg alone", "protocol": "(A) Mice are treated with a drug or vehicle solution for the control group using either intraperitoneal (i.p.), per oral (p.o.). subcutaneous (s.c.), intramuscular (i.m.) or intravenous (i.v.) delivery. […] (C) After that period the mice are killed, the c-fos induction is visualized using whole-brain immunostaining, the brains are chemically cleared and finally imaged by light-sheet fluorescent microscopy (LSFM). (D) The whole-brain scans are represented as serial section datasets typically with XYZ resolution of 4×4×5 microns. (E) The c-fos+ cells are detected in these datasets using custom trained machine learning algorithms. (F) The whole-brain distribution of the detected c-fos+ cells is represented in 3D as a spatial map of centroid points in the 3D space of the mouse brain. (G) This 3D map distribution is registered to a reference mouse brain and spatially voxelized using overlapping 150-micron sphere voxels.\nAt 2.5 hour post administration, the mice were euthanized and brains were immediately preserved by 4% paraformaldehyde (PFA)."}, "[3]": {"system": "mouse", "assay": "Forced swim test", "assay_type": "in vivo", "settings": "single dose 10 mg/kg, 1 hour and 24 hours after drug delivery, 6 min forced swim", "description": "The forced swim test is a frequently used behavioral protocol with a well-established therapeutic predictability for a broad range of antidepressants including ketamine (Porsolt et al. 1977; Cryan and Mombereau 2004; Cryan et al. 2005; Lucki et al. 2001). In this test the mouse is put in a beaker filled with water and the time spent struggling, swimming and floating is measured, with the time spent floating—when the mouse stops struggling to swim—being used as a behavioral correlate of depression."}, "[4]": {"system": "rodent", "assay": "d-amphetamine-induced hyperlocomotion (rodent model of mania)", "assay_type": "in vivo", "settings": "gaboxadol at 3 mg/kg alone"}, "[5]": {"settings": "20 mg dose; cited from earlier work"}, "[6]": {"system": "cytochrome P450s (CYPs)", "settings": "cited from earlier work"}, "[7]": {"system": "patients with severe major depressive disorder", "settings": "490 patients; daily oral escitalopram 20 mg and gaboxadol 5 mg or 10 mg; cited from earlier work"}, "[8]": {"system": "insomnia", "settings": "three-month efficacy study; cited from earlier work"}, "[9]": {"system": "combined delta, theta and alpha activity", "settings": "160 minutes after the first treatment; cited from earlier work"}, "[10]": {"settings": "human doses equivalent to the mouse 6 mg/kg dose; cited from earlier work"}, "[11]": {"system": "GABAA receptor", "settings": "in vivo; cited from earlier work"}, "[12]": {"settings": "cited from earlier work"}}, "note": "“Also recorded” adds a separate entry of the source. Read-outs that look alike come from different tables or passages of the source."}
{"smiles": "[2H]C1([2H])NCCc2c1o[nH]c2=O", "note": "[d2-gaboxadol 7,7, 4,5,6,7-tetrahydroisoxazolo[5,4-c]pyridin-3(2H)-one-7,7-d2]", "values": [{"measurement": "onset of sedation (start of immobility)", "setting": "[1]", "result": 13, "unit": "min"}, {"measurement": "onset of sedation (start of immobility)", "setting": "[1]; listed as d2-gaboxadol", "result": "13 to 14", "unit": "min"}, {"measurement": "brain activation compared with non-deuterated gaboxadol at the same dose", "setting": "[2]; 6 mg/kg i.p., ORBm, ILA, ACAd, AI, GU, VISC, CLA, LSr, BSTa", "result": "considerably higher brain activation than non-deuterated gaboxadol"}, {"measurement": "brain activation compared with non-deuterated gaboxadol at the same dose", "setting": "[2]; 6 mg/kg i.p., ORBm, ILA, ACAd, AI, GU, VISC, CLA, LSr, BSTa, listed as d2-gaboxadol", "result": "considerably stronger"}, {"measurement": "enhancement of synergies with lithium compared with non-deuterated gaboxadol", "setting": "[2]; 6 mg/kg with lithium at 150 mg/kg (FIG. 38)", "result": "significantly stronger enhancement of synergies with lithium than is found with non-deuterated gaboxadol"}, {"measurement": "level of brain activation compared with the same doses of non-deuterated gaboxadol", "setting": "[2]; 6, 10 and in some cases 20 mg/kg, certain brain areas (e.g. ILA and CP)", "result": "higher than the level of activation obtained by the same doses of non-deuterated gaboxadol"}, {"measurement": "dose of non-deuterated gaboxadol with equivalent/comparable brain activation", "setting": "[2]; d2-gaboxadol 7,7 at 6 mg/kg, mice, listed as ring carbon deuterated gaboxadol (7,7-d2), 6 mg/kg", "result": "10 to 20", "unit": "mg/kg"}]}
{"smiles": "[2H]C1([2H])NC([2H])([2H])C([2H])([2H])c2c1o[nH]c2=O", "note": "[d6-gaboxadol, 4,5,6,7-tetrahydroisoxazolo[5,4-c]pyridin-3(2H)-one-4,4,5,5,7,7-d6]", "values": [{"measurement": "onset of sedation (start of immobility)", "setting": "[1]", "result": 11, "unit": "min"}, {"measurement": "brain activation compared with gaboxadol", "setting": "[2]; 6 mg per kg, GU, VISC, AI (AId, AIp), TEa, CLA, BSTa, LC", "result": "higher brain activation than gaboxadol"}, {"measurement": "brain activation compared with gaboxadol", "setting": "[2]; 10 mg per kg, ACA (ACAd, ACAv), ILA, GU, VISC, AI, TEa, CLA, BSTa", "result": "more efficacious in evoking brain activation than gaboxadol"}, {"measurement": "brain activation compared with gaboxadol", "setting": "[2]; 20 mg per kg, BSTa, BSTov, BSTp, LC, CP, STRv (ACB, OT)", "result": "higher brain activation than gaboxadol"}, {"measurement": "brain activation compared with non-deuterated gaboxadol at the same dose", "setting": "[2]; 6, 10 and 20 mg per kg i.p.", "result": "considerably higher brain activation than non-deuterated gaboxadol"}]}
{"smiles": "Oc1noc2c1CCNC2", "note": "[gaboxadol, 4,5,6,7-tetrahydroisoxazolo (5,4-c) pyridin-3-ol]", "values": [{"measurement": "onset of sedation (start of immobility)", "setting": "[1]", "result": 15, "unit": "min"}, {"measurement": "time spent floating (immobility) compared to vehicle treated control group", "setting": "[3]", "result": "significantly reduced the time spent in floating; also recorded: nearly identical behavioral effect as the ketamine group"}, {"measurement": "effect on amphetamine-induced hyperlocomotion", "setting": "[4]", "result": "only modestly"}, {"measurement": "AUC0-∞", "setting": "[5]", "result": "about 900 ng*hr/ml"}, {"measurement": "Cmax", "setting": "[5]", "result": 900, "unit": "ng/mL"}, {"measurement": "plasma Tmax", "setting": "[5]", "result": "≤ 1.5", "unit": "h"}, {"measurement": "metabolism by CYPs", "setting": "[6]", "result": "not metabolized by CYPs"}, {"measurement": "benefit of oral gaboxadol added to escitalopram", "setting": "[7]", "result": "no additional benefit relative to escitalopram alone"}, {"measurement": "effects in sleep onset and sleep maintenance", "setting": "[8]", "result": "failed to show significant effects in sleep onset and sleep maintenance"}, {"measurement": "whole head MEG planar gradiometer increase in combined delta, theta and alpha activity", "setting": "[9]", "result": "≥ +3"}, {"measurement": "adverse side-effects in clinical trials", "setting": "[10]", "result": "no significant adverse side-effects"}, {"measurement": "GABAA receptor saturation level (blood level)", "setting": "[11]", "result": "over 900 ng/ml"}, {"measurement": "whole-brain activation pattern compared with ketamine", "setting": "[2]; gaboxadol 10 mg/kg vs ketamine 10 mg/kg", "result": "very similar brain activation as ketamine"}, {"measurement": "brain activation of each drug alone", "setting": "[2]", "result": "neither gaboxadol at 3 mg/kg nor ketamine at 6 mg/kg alone evoked any brain activation detectable"}, {"measurement": "brain activation of each compound alone", "setting": "[2]; lithium at 150 mg/kg alone, gaboxadol at 6 mg/kg alone", "result": "moderate brain activation on their own"}]}
{"smiles": "CNC1(c2ccccc2Cl)CCCCC1=O", "note": "(stereo not shown) [ketamine]", "values": [{"measurement": "time spent floating (immobility) compared to vehicle treated control group", "setting": "[3]", "result": "significantly reduced the time spent in floating; also recorded: significantly decreases the time the drug treated mice spent floating"}, {"measurement": "whole-brain activation pattern", "setting": "[2]; acute single dose 10 mg/kg, many cortical areas and midline thalamic nuclei", "result": "very robust and broad activation"}, {"measurement": "whole-brain activation pattern", "setting": "[2]; acute single dose 5 and 100 mg/kg", "result": "modest activation"}, {"measurement": "brain activation of each drug alone", "setting": "[2]", "result": "neither gaboxadol at 3 mg/kg nor ketamine at 6 mg/kg alone evoked any brain activation detectable"}]}
{"smiles": "[Li]", "note": "[lithium]", "values": [{"measurement": "typical therapeutic concentration in the serum", "setting": "[12]; acute treatment of manic episodes", "result": "0.6 to 1.2", "unit": "mmol/L"}, {"measurement": "serum concentration associated with mild toxicity", "setting": "[12]; in vivo", "result": "1200 to 2500", "unit": "µM"}, {"measurement": "serum concentration that can be life-threatening", "setting": "[12]; in vivo", "result": "greater than 3.5 mmol/L"}]}
